In US11357739B2, “Pimarane diterpenoids for use in wound healing and angiogenesis” (UNIVERSITY OF SOUTH CAROLINA, priority 2017, dated 2022):

Legend:
[1] = system: human umbilical vein endothelial cells (HUVECs); experiment: Cytotoxicity assay (MTS), cell proliferation and viability; assay type: cell-based; conditions: 24 hours of exposure, 0.1 to 1 μg/mL, vs control and DMSO vehicle control
Experimental: (§1) Human umbilical vein endothelial cells (HUVECs), adult normal human epidermal keratinocytes (NHEKs), normal human dermal fibroblasts (NHDFs) and related media for cell culture including endothelial basal and growth medium-2 (EBM-2, EGM-2), keratinocyte basal and growth medium-2 (KBM-2, KGM™-2), fibroblast basal and growth medium (FBM, FGM™) were purchased from Lonza. Cells were incubated at 37° C. and 5% CO2 throughout the experiments. Phosphate-Buffered Saline (PBS), [3-(4,5-dimethylthiazol-2-yl)-5-(3-carboxymethoxyphenyl)-2-(4-sulfophenyl)-2H-tetrazolium (MTS) (Promega) colorimetric assay and growth factor reduced matrigel BD (Corning) were from Sigma-Aldrich. Culture-Insert 2 Well 24 IbiTreat was used for the scratch assay.
(§2) In order to determine cell viability, HUVECs, NHDFs, NHEKs were cultured in their respective growth media to reach 80% confluency. Cells were seeded at the density of 3×10^3 cell per 96 well plate in a total volume of 100 μl in each well. After seeding, the cells were incubated for 24 hours at 37° C. and 5% CO2 to allow for cell attachment. Media was changed and replaced with media supplemented with the desired concentration of the compound of interest (0.1, 0.5, 1 and 10 μg/mL), being first dissolved at 10,000 μg/mL in DMSO and subsequently diluted in culture media. The vehicle control was culture medium supplemented with DMSO 0.1% (Macron Fine Chemicals), representing the highest final concentration of DMSO used to dissolve the natural compound. Following 24 hours of incubation, […] and incubated for 2 hours. Colored formazan absorbance which was produced by bio-reduction of MTS tetrazolium compound in live cells was read at 490 nm using a Spectramax 190 spectrophotometer and cell proliferation was assessed. A standard calibration curve at different concentration of cells was prepared to correlate cell number to absorbance.

[2] = system: normal human dermal fibroblasts (NHDFs); experiment: as above; assay type: cell-based; conditions: 24 hours of exposure, 0.1 to 1 μg/mL, vs control and DMSO vehicle control
Experimental: as §1, §2

[3] = system: normal human epidermal keratinocytes (NHEKs); experiment: as above; assay type: cell-based; conditions: 24 hours of exposure, 0.1 to 1 μg/mL, vs control and DMSO vehicle control
Experimental: as §1, §2

NHEKs = experiment: In vitro scratch assay (cell migration, wound closure); assay type: cell-based, human
Experimental: as §1
Cell migration of NHEKs was assessed through making a cell-free gap with a Culture-insert 2 well 24, consisting of two wells that were separated by a wall. A total of 70 μl of cell suspension comprising of 35×10^3 cell was applied in each well. Cells were given 24 hours to attach and reach confluency. Culture inserts were then removed, and cell debris was washed with PBS. The samples were supplemented with different concentration of the compound of interest in growth media and incubated at 37° C. and 5% CO2 for 20 hours. Images were taken every 4 hours using a phase contrast Nikon Eclipse Ti-E inverted microscope. Quantification of percent wound healing was performed by measuring the gap distance using the following formula:
[formula] in which Wn is the width of gap after every 4 hours and W0 is the initial width zero right after forming a scratch. Capillary Tube Formation

HUVECs = experiment: Capillary tube formation on matrigel; assay type: cell-based, human; conditions: 1 μg/mL, 8 hours
Experimental: as §1
Matrigel was kept in a −20° C. freezer and thawed on ice overnight in a 4° C. refrigerator. A total of 50 μl of thawed matrigel was added to each well of pre-chilled 96-well plate and then incubated for 30 min at 37° C. to form a gel. Next, 100 μl of a HUVEC cell suspension (passage 2-6) in conditioned media (20000 cell/well), including the compound of this invention, was added to gel and incubated at 37° C. for 8 hours. The number of junctions in tubes was examined using a phase contrast inverted microscope (Invitrogen EVOS FL Auto Cell Imaging) and compared to the conditions with no compound (negative control) and VEGF growth factor (positive control).

C=CC1(C)CC2=CCC3C(C)(C)CCC(O)C3(C)C2CC1O (stereo not shown) [compound of FIG. 1]
cell toxicity (MTS) [1]: no cell toxicity
cell toxicity (MTS) [2]: no cell toxicity
cell toxicity (MTS) [3]: no cell toxicity
migration during exposure time (NHEKs; 1 μg/mL, compared with untreated cells and 0.1 μg/mL): higheast migration
percentage of wound closure relative to non-treated control groups (NHEKs; 1 μg/mL, four hours post-treatment): ~10 fold
wound closure of NHEKs (NHEKs; 0.1 and 1 μg/mL, monitored for 20 hours, vs untreated control): significantly enhance the wound closure
tube formation, more than the control (untreated cell) (HUVECs): 60%
